Results taken from patent US20250304620A1, “ANTIMICROBIAL PEPTIDE AND APPLICATION THEREOF” (priority 2023, published 2025).
In brackets after ≈: the same amount, converted by molar mass. Marks after values point to notes of the source that are not given here. Non-standard residues stand in square brackets, D forms with d. Residues, ends and D or L forms follow the SMILES beside them. d2Nal = N[C@H](Cc1ccc2ccccc2c1)C(=O)O

Tests used:
rabbit red blood cells = assay type: cell-based; conditions: red cells of rabbit, 1 h
[1] = Serum stability assay (residual level by RP-HPLC); conditions: human
Candida krusei ATCC 6258 = assay type: cell-based
Text: (§1) According to the Standards of Clinical and Laboratory Standards Institute (CLSI) of the USA for antimicrobial drug susceptibility test operation standards, the micronutrient serial twofold dilution method was used further determine MICs of 30 AMPs (S/N: LV-1 to LV-30) 10 clinically common sensitive strains and 6 fungi in clinical practice. The experiment was repeated 5 times in parallel.

[2] = tested on: Corynebacterium ATCC 7715; assay type: cell-based
Text: as §1

[3] = tested on: Pseudomonas aeruginosa ATCC 27853; assay type: cell-based
Text: as §1

[4] = tested on: Salmonella typhimurium ATCC 14028; assay type: cell-based
Text: as §1

[5] = tested on: Candida albicans ATCC MYA-2876; assay type: cell-based
Text: as §1

[6] = tested on: Candida glabrata ATCC 15126; assay type: cell-based
Text: as §1

[7] = tested on: Serratia marcescens ATCC 29021; assay type: cell-based
Text: as §1

[8] = tested on: Bacillus subtilis ATCC 6633; assay type: cell-based
Text: as §1

[9] = tested on: Staphylococcus aureus ATCC 25923; assay type: cell-based
Text: as §1

Candida utilis ATCC 9950 = assay type: cell-based
Text: as §1

[10] = tested on: Klebsiella pneumoniae ATCC 700603; assay type: cell-based
Text: as §1

[11] = tested on: vancomycin-resistant Enterococcus (VRE); assay type: cell-based
Text: (§2) According to the Standards of Clinical and Laboratory Standards Institute (CLSI) of the USA for antimicrobial drug susceptibility test operation standards, the micronutrient serial twofold dilution method was used further determine MICs of the antimicrobial peptides LV-1 to LV-30 against 5 clinically common drug-resistant bacterial strains. The experiment was repeated 5 times in parallel. […] The tested drug-resistant strains included Methicillin-resistant Staphylococcus aureus (MRSA), carbapenem-resistant Escherichia coli (CREC), vancomycin-resistant Enterococcus (VRE), carbapenem-resistant Pseudomonas aeruginosa (CRPA), and carbapenem-resistant Klebsiella pneumoniae (CRKP).

[12] = tested on: carbapenem-resistant Escherichia coli (CREC); assay type: cell-based; conditions: carbapenem-resistant (CREC)
Text: as §2

[13] = tested on: carbapenem-resistant Klebsiella pneumoniae (CRKP); assay type: cell-based; conditions: carbapenem-resistant (CRKP)
Text: as §2

[14] = tested on: carbapenem-resistant Pseudomonas aeruginosa (CRPA); assay type: cell-based; conditions: carbapenem-resistant (CRPA)
Text: as §2

[15] = tested on: Methicillin-resistant Staphylococcus aureus (MRSA); assay type: cell-based; conditions: Methicillin-resistant
Text: as §2

[16] = tested on: Shigella flexneri ATCC 12022; assay: MIC against clinically common bacterial strain; assay type: cell-based
Text: as §1

[17] = tested on: Pseudomonas aeruginosa ATCC 27853; assay: Injectable formulations on mice infected with peritonitis; assay type: in vivo, ICR mice; conditions: twice a day for 3 days; for Number of mice that died on each day after infection: day 1 / Number of mice that died on each day after infection: day 2 / Number of mice that died on each day after infection: day 3 / Number of mice that died on each day after infection: day 4 / Number of mice that died on each day after infection: day 5 / Average survival times (Days): n = 10; for Average survival times (Days): observed for 14 d
Procedure, shortened: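 Survival readout: deaths and survival time tracked for 14 d. Treatment was tail-vein injection by body weight, twice a day for 3 consecutive days, starting right after intraperitoneal challenge with 0.2 mL of 1×10^9 CFU/mL P. aeruginosa ATCC 27853 in male and female ICR mice.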

SMILES: CC(=O)N[C@H](CCCNC(=N)N)C(=O)N[C@H](CCCCN)C(=O)N[C@H](CC(C)C)C(=O)N[C@H](CC(C)C)C(=O)N[C@H](Cc1ccccc1)C(=O)N[C@H](CCCNC(=N)N)C(=O)N[C@H](CC(C)C)C(=O)N[C@H](CCCCN)C(=O)N[C@H](Cc1ccccc1)C(=O)N[C@H](CCCNC(=N)N)C(=O)N[C@H](CCCCN)C(N)=O [LV-2] (Ac-[dR][dK][dL][dL][dF][dR][dL][dK][dF][dR][dK]-NH2)
- MHC (minimum hemolytic concentration, lowest concentration causing 10% hemolysis) (rabbit red blood cells): >1000 µg/mL
- remaining at 12 h, 0.91 mg/mL [1]: 97.4%
- MIC Candida krusei ATCC 6258 (Candida krusei ATCC 6258): 16 µg/mL (≈ 10.3 µM)
- MIC Corynebacterium ATCC 7715 [2]: 4 µg/mL (≈ 2.59 µM)
- MIC Pseudomonas aeruginosa ATCC 27853 [3]: 1 µg/mL (≈ 0.647 µM)
- MIC Salmonella typhimurium ATCC 14028 [4]: 2 µg/mL (≈ 1.29 µM)
- MIC Candida albicans ATCC MYA-2876 [5]: 16 µg/mL (≈ 10.3 µM)
- MIC Candida glabrata ATCC 15126 [6]: 16 µg/mL (≈ 10.3 µM)
- MIC Serratia marcescens ATCC 29021 [7]: 4 µg/mL (≈ 2.59 µM)
- MIC Bacillus subtilis ATCC 6633 [8]: 2 µg/mL (≈ 1.29 µM)
- MIC Staphylococcus aureus ATCC 25923 [9]: 2 µg/mL (≈ 1.29 µM)
- MIC Candida utilis ATCC 9950 (Candida utilis ATCC 9950): 8 µg/mL (≈ 5.17 µM)
- MIC Klebsiella pneumoniae ATCC 700603 [10]: 4 µg/mL (≈ 2.59 µM)
- MIC VRE [11]: 2 µg/mL (≈ 1.29 µM)
- MIC CREC [12]: 4 µg/mL (≈ 2.59 µM)
- MIC CRKP [13]: 2 µg/mL (≈ 1.29 µM)
- MIC CRPA [14]: 8 µg/mL (≈ 5.17 µM)
- MIC MRSA [15]: 2 µg/mL (≈ 1.29 µM)
- MIC Shigella flexneri ATCC 12022 [16]: 2 µg/mL (≈ 1.29 µM)
- Number of mice that died on each day after infection: day 1 ([17]; 0.2 mg/kg via tail vein): 3 Mouse
- Number of mice that died on each day after infection: day 2 ([17]; 0.2 mg/kg via tail vein): 1 Mouse
- Number of mice that died on each day after infection: day 3 ([17]; 0.2 mg/kg via tail vein): 1 Mouse
- Number of mice that died on each day after infection: day 4 ([17]; 0.2 mg/kg via tail vein): 0 Mouse
- Number of mice that died on each day after infection: day 5 ([17]; 0.2 mg/kg via tail vein): 0 Mouse
- Average survival times (Days) ([17]; 0.2 mg/kg via tail vein): 7.8** Days
- Number of mice that died on each day after infection: day 1 ([17]; 1 mg/kg via tail vein): 0 Mouse
- Number of mice that died on each day after infection: day 2 ([17]; 1 mg/kg via tail vein): 0 Mouse
- Number of mice that died on each day after infection: day 3 ([17]; 1 mg/kg via tail vein): 1 Mouse
- Number of mice that died on each day after infection: day 4 ([17]; 1 mg/kg via tail vein): 0 Mouse
- Number of mice that died on each day after infection: day 5 ([17]; 1 mg/kg via tail vein): 1 Mouse
- Average survival times (Days) ([17]; 1 mg/kg via tail vein): 12.0**** Days
- Number of mice that died on each day after infection: day 1 ([17]; 5 mg/kg via tail vein): 1 Mouse
- Number of mice that died on each day after infection: day 2 ([17]; 5 mg/kg via tail vein): 0 Mouse
- Number of mice that died on each day after infection: day 3 ([17]; 5 mg/kg via tail vein): 1 Mouse
- Number of mice that died on each day after infection: day 4 ([17]; 5 mg/kg via tail vein): 0 Mouse
- Number of mice that died on each day after infection: day 5 ([17]; 5 mg/kg via tail vein): 0 Mouse
- Average survival times (Days) ([17]; 5 mg/kg via tail vein): 11.6**** Days
- survival time of mice infected with Pseudomonas aeruginosa ([17]; tail vein, observed 14 d): superior to those of the Levofloxacin group

SMILES: CC(=O)N[C@H](CCCNC(=N)N)C(=O)N[C@H](CCCCN)C(=O)N[C@H](CC(C)C)C(=O)N[C@H](CC(C)C)C(=O)N[C@H](Cc1ccccc1)C(=O)N[C@H](CCCNC(=N)N)C(=O)N[C@H](CC(C)C)C(=O)N[C@H](CCCCN)C(=O)N[C@H](Cc1ccc2ccccc2c1)C(=O)N[C@H](CCCNC(=N)N)C(=O)N[C@H](CCCCN)C(N)=O [LV-3] (Ac-[dR][dK][dL][dL][dF][dR][dL][dK][d2Nal][dR][dK]-NH2)
- MHC (minimum hemolytic concentration, lowest concentration causing 10% hemolysis) (rabbit red blood cells): >1000 µg/mL
- remaining at 12 h, 0.91 mg/mL [1]: 98.7%
- MIC Candida krusei ATCC 6258 (Candida krusei ATCC 6258): 16 µg/mL (≈ 10 µM)
- MIC Corynebacterium ATCC 7715 [2]: 4 µg/mL (≈ 2.51 µM)
- MIC Pseudomonas aeruginosa ATCC 27853 [3]: 4 µg/mL (≈ 2.51 µM)
- MIC Salmonella typhimurium ATCC 14028 [4]: 1 µg/mL (≈ 0.627 µM)
- MIC Candida albicans ATCC MYA-2876 [5]: 8 µg/mL (≈ 5.01 µM)
- MIC Candida glabrata ATCC 15126 [6]: 16 µg/mL (≈ 10 µM)
- MIC Serratia marcescens ATCC 29021 [7]: 4 µg/mL (≈ 2.51 µM)
- MIC Bacillus subtilis ATCC 6633 [8]: 2 µg/mL (≈ 1.25 µM)
- MIC Staphylococcus aureus ATCC 25923 [9]: 2 µg/mL (≈ 1.25 µM)
- MIC Candida utilis ATCC 9950 (Candida utilis ATCC 9950): 8 µg/mL (≈ 5.01 µM)
- MIC Klebsiella pneumoniae ATCC 700603 [10]: 2 µg/mL (≈ 1.25 µM)
- MIC VRE [11]: 8 µg/mL (≈ 5.01 µM)
- MIC CREC [12]: 4 µg/mL (≈ 2.51 µM)
- MIC CRKP [13]: 4 µg/mL (≈ 2.51 µM)
- MIC CRPA [14]: 8 µg/mL (≈ 5.01 µM)
- MIC MRSA [15]: 2 µg/mL (≈ 1.25 µM)
- MIC Shigella flexneri ATCC 12022 [16]: 2 µg/mL (≈ 1.25 µM)
- Number of mice that died on each day after infection: day 1 ([17]; 1 mg/kg via tail vein): 1 Mouse
- Number of mice that died on each day after infection: day 2 ([17]; 1 mg/kg via tail vein): 1 Mouse
- Number of mice that died on each day after infection: day 3 ([17]; 1 mg/kg via tail vein): 0 Mouse
- Number of mice that died on each day after infection: day 4 ([17]; 1 mg/kg via tail vein): 2 Mouse
- Number of mice that died on each day after infection: day 5 ([17]; 1 mg/kg via tail vein): 1 Mouse
- Average survival times (Days) ([17]; 1 mg/kg via tail vein): 8.6** Days
